In PubChem BioAssay (NCI):
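Interpolation was linear, between the two tested concentrations surrounding the appropriate level; five concentrations were tested over 48 hours in 96-well plates. At the TGI there is no net growth.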

How the values were obtained:
Assay in all cases: inhibition of tumour cell growth, NCI panel, 48 h
[1] = test system: HS 578T breast
[2] = test system: SK-MEL-28 melanoma
[3] = test system: OVCAR-5 ovarian
[4] = test system: UACC-257 melanoma
[5] = test system: NCI/ADR-RES ovarian
[6] = test system: SNB-19 CNS
[7] = test system: NCI-H226 lung
[8] = test system: U251 CNS
[9] = test system: ACHN renal
[10] = test system: PC-3 prostate
[11] = test system: RPMI-8226 leukemia
[12] = test system: T-47D breast
[13] = test system: SNB-78 CNS
[14] = test system: SW-620 colon
[15] = test system: 786-0 renal
[16] = test system: LXFL 529 NSCLC
[17] = test system: SN12C renal
[18] = test system: SF-268 CNS
[19] = test system: M14 melanoma
[20] = test system: UO-31 renal
[21] = test system: LOX IMVI melanoma
[22] = test system: OVCAR-3 ovarian
[23] = test system: SF-295 CNS
[24] = test system: HCT-116 colon
[25] = test system: DMS 273 small cell lung
[26] = test system: MOLT-4 leukemia
[27] = test system: MDA-N
[28] = test system: UACC-62 melanoma
[29] = test system: MCF7 breast
[30] = test system: K-562 leukemia
[31] = test system: MALME-3M melanoma
[32] = test system: CAKI-1 renal
[33] = test system: KM12 colon
[34] = test system: HOP-62 NSCLC
[35] = test system: CCRF-CEM leukemia
[36] = test system: COLO 205 colon
[37] = test system: IGROV1 ovarian
[38] = test system: TK-10 renal
[39] = test system: SF-539 CNS
[40] = test system: SR leukemia
[41] = test system: A549 NSCLC
[42] = test system: OVCAR-4 ovarian
[43] = test system: SK-MEL-2 melanoma
[44] = test system: MDA-MB-435
[45] = test system: HCT-15 colon
[46] = test system: HOP-92 NSCLC
[47] = test system: NCI-H460 lung
[48] = test system: OVCAR-8 ovarian
[49] = test system: MDA-MB-231 breast
[50] = test system: SK-MEL-5 melanoma
[51] = test system: EKVX NSCLC
[52] = test system: SK-OV-3 ovarian
[53] = test system: DLD-1 colon
[54] = test system: BT-549 breast
[55] = test system: HT29 colon
[56] = test system: NCI-H522 lung
[57] = test system: HCC-2998 colon
[58] = test system: NCI-H23 lung
[59] = test system: DU-145 prostate
[60] = test system: HL-60(TB) leukemia
[61] = test system: RXF 393 renal
[62] = test system: A498 renal
[63] = test system: SNB-75 CNS

Which results are given for Cc1ccc(C(=O)N(Cc2ccccc2)Cc2ccccc2)cc1N=NN(C)C?
TGI [1]: 75.2 µM; TGI [2]: > 69.7 µM; TGI [3]: > 100 µM; TGI [4]: 53.4 µM; TGI [5]: > 100 µM; TGI [6]: > 100 µM; TGI [7]: 56.2 µM; TGI [8]: > 100 µM; TGI [9]: > 92.7 µM; TGI [10]: > 100 µM; TGI [11]: > 100 µM; TGI [12]: 75 µM; TGI [13]: > 100 µM; TGI [14]: > 100 µM; TGI [15]: > 100 µM; TGI [16]: 72.4 µM; TGI [17]: > 81.1 µM; TGI [18]: > 100 µM; TGI [19]: > 81.2 µM; TGI [20]: > 71 µM; TGI [21]: 15.6 µM; TGI [22]: 43.1 µM; TGI [23]: > 81.5 µM; TGI [24]: 30 µM; TGI [25]: > 100 µM; TGI [26]: > 100 µM; TGI [27]: > 100 µM; TGI [28]: > 31.6 µM; TGI [29]: 65.9 µM; TGI [30]: > 100 µM; TGI [31]: 40.6 µM; TGI [32]: > 100 µM; TGI [33]: > 86.5 µM; TGI [34]: 90 µM; TGI [35]: > 100 µM; TGI [36]: 44.7 µM; TGI [37]: > 100 µM; TGI [38]: > 100 µM; TGI [39]: 44.9 µM; TGI [40]: > 100 µM; TGI [41]: > 100 µM; TGI [42]: > 87.4 µM; TGI [43]: 9.79 µM; TGI [44]: 54.8 µM; TGI [45]: > 90.1 µM; TGI [46]: 70.1 µM; TGI [47]: > 100 µM; TGI [48]: > 100 µM; TGI [49]: 78 µM; TGI [50]: 27.3 µM; TGI [51]: > 100 µM; TGI [52]: 99.2 µM; TGI [53]: > 100 µM; TGI [54]: 45.6 µM; TGI [55]: 21.3 µM; TGI [56]: 38.7 µM; TGI [57]: 96 µM; TGI [58]: 58.7 µM; TGI [59]: > 100 µM; TGI [60]: 61.9 µM

Which results are given for Cc1cn(C2CC(N)C(C(=O)NCC(=O)O)O2)c(=O)[nH]c1=O (configuration not stated)?
TGI [1]: > 100 µM; TGI [2]: > 100 µM; TGI [3]: > 100 µM; TGI [5]: > 100 µM; TGI [6]: > 100 µM; TGI [7]: > 100 µM; TGI [8]: > 100 µM; TGI [9]: > 100 µM; TGI [10]: > 100 µM; TGI [11]: > 100 µM; TGI [12]: > 100 µM; TGI [14]: > 100 µM; TGI [17]: > 100 µM; TGI [18]: > 100 µM; TGI [61]: > 100 µM; TGI [19]: > 100 µM; TGI [20]: > 100 µM; TGI [21]: > 100 µM; TGI [22]: > 100 µM; TGI [24]: > 100 µM; TGI [62]: > 100 µM; TGI [26]: > 100 µM; TGI [27]: > 100 µM; TGI [28]: > 100 µM; TGI [29]: > 100 µM; TGI [30]: > 100 µM; TGI [31]: > 100 µM; TGI [32]: > 100 µM; TGI [33]: > 100 µM; TGI [34]: > 100 µM; TGI [35]: > 100 µM; TGI [36]: > 100 µM; TGI [37]: > 100 µM; TGI [38]: > 100 µM; TGI [40]: > 100 µM; TGI [42]: > 100 µM; TGI [44]: > 100 µM; TGI [45]: > 100 µM; TGI [46]: > 100 µM; TGI [47]: > 100 µM; TGI [49]: > 100 µM; TGI [50]: > 100 µM; TGI [51]: > 100 µM; TGI [52]: > 100 µM; TGI [54]: > 100 µM; TGI [55]: > 100 µM; TGI [56]: > 100 µM; TGI [57]: > 100 µM; TGI [63]: > 100 µM; TGI [58]: > 100 µM; TGI [59]: > 100 µM; TGI [60]: > 100 µM
